For 5 molecules, Activity, EC50 and IC50 results are on record in ChEMBL document CHEMBL2331244, “Selective 3-phosphoinositide-dependent kinase 1 (PDK1) inhibitors: dissecting the function and pharmacology of PDK1” (J Med Chem, 2013).

For experiment [1], the target named is T1, 3-phosphoinositide-dependent protein kinase 1 (Homo sapiens) (UniProt O15530).
T1 sequence (whole entry): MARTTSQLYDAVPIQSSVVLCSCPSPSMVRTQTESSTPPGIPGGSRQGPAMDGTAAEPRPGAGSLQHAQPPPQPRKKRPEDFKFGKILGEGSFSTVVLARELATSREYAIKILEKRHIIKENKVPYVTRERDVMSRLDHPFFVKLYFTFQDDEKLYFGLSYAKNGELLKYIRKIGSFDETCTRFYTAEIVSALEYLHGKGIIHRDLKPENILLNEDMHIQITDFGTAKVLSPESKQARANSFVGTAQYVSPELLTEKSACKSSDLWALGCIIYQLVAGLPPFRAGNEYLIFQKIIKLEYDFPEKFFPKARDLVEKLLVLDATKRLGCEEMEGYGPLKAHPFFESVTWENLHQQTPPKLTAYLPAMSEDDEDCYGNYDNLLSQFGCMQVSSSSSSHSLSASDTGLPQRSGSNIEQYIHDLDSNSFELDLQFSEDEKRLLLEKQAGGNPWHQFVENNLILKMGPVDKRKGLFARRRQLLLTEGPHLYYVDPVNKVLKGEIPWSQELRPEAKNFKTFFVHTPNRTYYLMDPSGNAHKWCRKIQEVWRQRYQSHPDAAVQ
The experiment in a line: Agonist activity at PDK1 (unknown origin) using T308tide as substrate assessed as concentration required to elicit 50% response in presence of [gamma-32P]ATP.

Another experiment concerns LNCaP. The experiment in a line: Antiproliferative activity against PTEN-deficient human LNCAP cells after 72 hrs by ATP ViaLight assay. The class given is functional, cell-based.
The subject of another experiment is A549. The experiment is described as follows: Antiproliferative activity against human A549 cells harboring KRAS mutant after 72 hrs by ATP ViaLight assay. The class given is functional, cell-based. Conditions: A549, 72 h.
A short description of experiment [2]: Antiproliferative activity against PTEN-deficient human U87 cells after 72 hrs by ATP ViaLight assay. It counts as functional, cell-based, U-87MG ATCC. As to conditions: U-87 MG.
For another experiment, the system named is BT-474. The experiment is described as follows: Antiproliferative activity against human BT474 cells harboring PI3KCA mutant after 72 hrs by ATP ViaLight assay. It counts as functional, cell-based. Conditions: BT-474, 72 h.
The test system of another experiment is NCI-H446. The experiment in a line: Antiproliferative activity against PTEN-deficient human NCI-H446 cells after 72 hrs by ATP ViaLight assay. As to conditions: NCI-H446, 72 h. The class given is functional, cell-based.
The next experiment concerns T47D. The experiment in a line: Antiproliferative activity against human T47D cells harboring PI3KCA mutant after 72 hrs by ATP ViaLight assay. The class given is functional, cell-based.
In the next experiment the test system is MDA-MB-231. The experiment is described as follows: Antiproliferative activity against human MDA-MB-231 cells harboring KRAS mutant after 72 hrs by ATP ViaLight assay. The class given is functional, cell-based. Conditions: MDA-MB-231, 72 h.
The nature of experiment [3]: Antiproliferative activity against PTEN-deficient human […] cells after 72 hrs by ATP ViaLight assay. The class given is functional, cell-based.
The nature of experiment [4]: Antiproliferative activity against human NCI-H1915 cells harboring KRAS mutant after 72 hrs by ATP ViaLight assay. It counts as functional, cell-based. Conditions: NCI-H1915, 72 h.
In another experiment the test system is NCI-H1437. The experiment is described as follows: Antiproliferative activity against human NCI-H1437 cells after 72 hrs by ATP ViaLight assay. The class given is functional, cell-based. Conditions: NCI-H1437, 72 h.
The test system of another experiment is HCT-116. The experiment is described as follows: Antiproliferative activity against human HCT116 cells harboring PI3KCA/KRAS double mutant after 72 hrs by ATP ViaLight assay. It counts as functional, cell-based. As to conditions: HCT-116, 72 h.
The test system of the next experiment is LS-513. The experiment is described as follows: Antiproliferative activity against human LS513 cells harboring KRAS mutant after 72 hrs by ATP ViaLight assay. It counts as functional, cell-based. As to conditions: LS-513, 72 h.
Another experiment relates to MCF7. The experiment is described as follows: Antiproliferative activity against human MCF7 cells harboring PI3KCA mutant after 72 hrs by ATP ViaLight assay. The class given is functional, cell-based. Conditions: MCF7, 72 h.
For the next experiment, the system named is MDA-MB-453. The experiment is described as follows: Antiproliferative activity against human MDA-MB-453 cells harboring PI3KCA mutant after 72 hrs by ATP ViaLight assay. The class given is functional, cell-based. Conditions: MDA-MB-453, 72 h.
Another experiment has as its system PC-3. The experiment is described as follows: Antiproliferative activity against PTEN-deficient human PC3 cells after 72 hrs by ATP ViaLight assay. The class given is functional, cell-based. Conditions: PC-3, 72 h.
The next experiment has as its system UMC-11. The experiment in a line: Antiproliferative activity against human UMC11 cells after 72 hrs by ATP ViaLight assay. It counts as functional, cell-based. As to conditions: UMC-11, 72 h.
Another experiment deals with A-427. The experiment is described as follows: Antiproliferative activity against human A427 cells harboring KRAS mutant after 72 hrs by ATP ViaLight assay. It counts as functional, cell-based. Conditions: A-427, 72 h.
Experiment [5] deals with T2, 3-phosphoinositide-dependent protein kinase 1 (Homo sapiens, UniProt O15530).
T2 sequence (O15530 whole entry): T1 sequence (whole entry)
The experiment is described as follows: Inhibition of PDK1 (unknown origin).

For experiment [6], the target named is Serine/threonine-protein kinase mTOR (Homo sapiens, UniProt P42345). The experiment in a line: Inhibition of MTOR (unknown origin).
Experiment [7] deals with T2, 3-phosphoinositide-dependent protein kinase 1. The experiment in a line: Inhibition of recombinant PDK1 (unknown origin) using RPRAATF peptide as substrate assessed as substrate phosphorylation by scintillation counting analysis in presence of [gamma-32P]ATP.
Experiment [8] has as its target T1, 3-phosphoinositide-dependent protein kinase 1 (Homo sapiens). The experiment is described as follows: Agonist activity at human N-terminal His6-tagged PDK1 amino acid residues 51 to 359 expressed in insect sf21 cells using T308tide as substrate at 313 uM incubated for 60 mins prior to substrate addition measured after 60 mins by ATP depletion assay.

On to `O=C(O)CSC(CC(=O)c1ccc(Cl)cc1)c1ccccc1` (configuration not stated), for which the Activity in [1] came out at 34 µM.

For the molecule `O=C(N[C@@H](COc1ccc2[nH]c(=O)[nH]c2c1)c1ccccc1)c1cccn(Cc2ccc(F)c(F)c2)c1=O`, the EC50 (in the experiment on LNCaP; in the experiment with A549; in experiment [2]; in the experiment with BT-474; in the experiment on NCI-H446; in the experiment with T47D) was above 9 µM each time. In addition, the concentration for a half-maximal effect (EC50) (in the experiment with MDA-MB-231; in experiment [3]; in experiment [4]; in the experiment with NCI-H1437; in the experiment on HCT-116; in the experiment with LS-513) was above 9 µM in each case. The EC50 in the experiment on MCF7, in the experiment on MDA-MB-453, in the experiment on PC-3, with UMC-11 and in the experiment with A-427 was above 9 µM throughout.

Regarding `O=P(O)(O)O[C@@H]1[C@@H](OP(=O)(O)O)[C@@H](OP(=O)(O)O)[C@@H](OCc2ccccc2)[C@H](OP(=O)(O)O)[C@H]1OP(=O)(O)O`, the IC50 is 0.0265 µM in experiment [5] and 1.3 µM in [6].

As for `NC(N)=Nc1ccc(-n2nc(C(F)(F)F)cc2-c2ccc3c(ccc4ccccc43)c2)cc1`, in experiment [7], the IC50 worked out at 2 µM.

In [8], `COc1ccc(CC(C(=O)O)c2ccccc2)cc1` (configuration not stated) displayed an Activity of 33%.
